What was measured:
[1] = tested on: water immersion stressed rats; assay: Action of S1PC against decrease in tail skin blood flow in water immersion stressed rats (Test Example 1); assay type: in vivo, male Wistar rats
Method: Action of S1PC Against Decrease in Tail Skin Blood Flow in Water Immersion Stressed Rate
Eight-week-old male Wistar rats purchased from Japan SLC, Inc. (Hamamatsu City) were grouped by nines, and preliminarily bred for two weeks. During preliminary breeding, handling was performed on the rats, and the rats were bred in a constant environment at a temperature of 23±1° C., a humidity of 50±10%, and a light/dark cycle of 12 hours (light period: 7 to 19 o'clock), and freely fed with artificial diet (CE-2, from CLEA Japan, inc.) and sterilized tap water.
The administration was performed by forced oral administration using a disposable feeding needle, and the fluid volume to be administered was 10 mL per kilogram of body weight of rat. As a sample to be administered, approximately 15 mg of S1PC (a cis/trans mixture) manufactured in Production Example 2 was precisely weighed, and dissolved in 15 mL of purified water. This solution was used as a stock solution. The solution was properly diluted to give 6.5 mg/kg (body weight of rat) of dosage and the diluted solution was orally administered to each rat a single time. To each rat of a control group, a solvent (purified water) was orally administered in the same manner as described above.
(§1) The rats were allowed to stand still in a room conditioned at a temperature of 20±0.5° C. for 30 minutes or longer, and attached with a probe for blood flow measurement using a binding tape at a position 5 cm away from the base of tail under isoflurane anesthesia. The blood flow was measured for 5 minutes using a laser tissue blood flowmeter (FLO-C1, from Omegawave Inc.). Average blood flow for 3 minutes during which the stable blood flow was shown was determined as the tail skin blood flow of the individual. The blood flow before water immersion was measured, and then S1PC or purified water was orally administered to the rats. Two hours after the administration, the rats were immersed up to the xiphoid and below in water at 15° C. for 10 minutes, using a stainless-steel restraint cage. The tail skin blood flow after the water immersion stress was measured one hour after the end of water immersion stress.
Measured values were given as average±standard error.
The t-test was used for examination.

[2] = tested on: water immersion stressed rats; assay: Actions against depressed tail subcutaneous blood flow in water immersion stressed rats, compared between S1PC and SAC (Test Example 2); assay type: in vivo, male Wistar rats; settings: for Effect of improving the tail skin blood flow with respect to the control group: 6.5 mg/kg single oral administration two hours before water immersion stress, one hour after end of stress, Bonferroni correction
Method: Actions against Depressed Tail Subcutaneous Blood Flow in Water Immersion Stressed Rats, Compared between S1PC and SAC
Seven-week-old male Wistar rats purchased from Japan SLC, Inc. (Hamamatsu City) were grouped by twelves, and preliminarily bred for two weeks. During preliminary breeding, handling was performed on the rats, and the rats were bred in a constant environment at a temperature of 23±1° C., a humidity of 50±10%, and a light/dark cycle of 12 hours (light period: 7 to 19 o'clock), and freely fed with artificial diet (CE-2, from CLEA Japan, inc.) and sterilized tap water.
The administration was performed by forced oral administration using a disposable feeding needle, and the fluid volume to be administered was 10 mL per kilogram of body weight of rat. As a sample to be administered, approximately 15 mg each of S1PC (a cis/trans mixture) manufactured in Production Example 2 and SAC were precisely weighed, and dissolved in 15 mL of purified water. These solutions were used as a stock solution. The solutions were properly diluted to give 6.5 mg/kg (body weight of rat) of dosage and the diluted solution was orally administered to each rat a single time. […]
as §1, with “individuals.” for “individual.”, “S1PC, SAC” for “S1PC”, “Two hours after the administration, the rats were immersed up to the xiphoid and below in water at 15° C. for 10 minutes, using a stainless-steel restraint cage.” left out
Measured values were given […] average±standard error. […]

Row | SMILES | Effect of improving the tail skin blood flow with respect to the control group ([1]; 6.5 mg/kg single oral administration two hours before water immersion stress, t-test) | Degree of decrease in tail skin blood flow due to water immersion stress ([1]; 6.5 mg/kg single oral administration two hours before water immersion stress, versus control group) | Tail skin blood flow, one hour after end of water immersion stress ([1]; 6.5 mg/kg single oral dose two hours before water immersion (15° C., 10 minutes), average ± standard error) | Tail skin blood flow, before water immersion stress ([1]; baseline before oral administration, average ± standard error, laser tissue blood flowmeter) | Effect of improving the tail skin blood flow with respect to the control group [2] | Tail skin blood flow, S1PC group compared with SAC group ([2]; 6.5 mg/kg single oral dose each, one hour after end of water immersion stress, p<0.01)
1 | CC=CSC[C@H](N)C(=O)O [S1PC, S-1-propenylcysteine] | significant effect of improving the tail skin blood flow | smaller as compared with the control group | 2.21 ± 0.15 mL/min/100 g | 2.76 ± 0.15 mL/min/100 g | showed a significant effect of improving the tail skin blood flow | significantly higher value of tail skin blood flow, as compared with the SAC group
2 | C=CCSC[C@H](N)C(=O)O [SAC, S-allylcysteine, reference compound] |  |  |  |  | did not show a significant effect of improving the tail skin blood flow | 

Reference: patent publication US11717502B2, “Blood flow improver” (WAKUNAGA PHARMACEUTICAL CO., LTD., priority 2017, dated 2023)
